The values below come from ChEMBL document CHEMBL1131422, “N-(2-Benzoylphenyl)-L-tyrosine PPARgamma agonists. 1. Discovery of a novel series of potent antihyperglycemic and antihyperlipidemic agents” (J Med Chem, 1998).

Assay [1] concerns the target T1, Peroxisome proliferator-activated receptor gamma (Homo sapiens, UniProt P37231).
T1 sequence (P37231 whole entry): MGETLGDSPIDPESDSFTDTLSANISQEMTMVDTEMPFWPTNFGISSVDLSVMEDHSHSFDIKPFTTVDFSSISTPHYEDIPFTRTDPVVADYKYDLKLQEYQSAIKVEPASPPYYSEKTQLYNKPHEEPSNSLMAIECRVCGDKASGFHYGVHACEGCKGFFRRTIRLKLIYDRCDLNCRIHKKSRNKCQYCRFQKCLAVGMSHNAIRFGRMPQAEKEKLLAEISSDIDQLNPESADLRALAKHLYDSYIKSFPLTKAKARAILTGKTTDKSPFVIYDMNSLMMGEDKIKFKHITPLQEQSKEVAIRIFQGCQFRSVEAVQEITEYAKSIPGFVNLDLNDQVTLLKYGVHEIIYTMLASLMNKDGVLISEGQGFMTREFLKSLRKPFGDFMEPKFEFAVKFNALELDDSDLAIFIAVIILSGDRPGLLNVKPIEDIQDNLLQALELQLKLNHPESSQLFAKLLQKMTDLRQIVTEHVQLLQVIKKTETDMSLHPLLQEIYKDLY
Description: Activation of peroxisome proliferator activated receptor gamma measured by induction of 50% of maximum alkaline phosphatase activity, transfection assay in CV-1 cells

In assay [2] the target is T1, Peroxisome proliferator-activated receptor gamma. The source holds these as a separate data set.
Description: In vitro binding to peroxisome proliferator activated receptor gamma (PPAR gamma) using [3H]-BRL 49653 as radioligand in scintillation proximity assay (SPA)
Assay [3] has as its target T2, Peroxisome proliferator-activated receptor gamma (Homo sapiens) (UniProt P37231).
T2 sequence (whole entry): T1 sequence (P37231 whole entry)
In words: Compound was tested functionally in vitro for inducing 50% of the maximum alkaline phosphatase activity (Transactivation) against Peroxisome proliferator activated receptor gamma using transfection assay in CV-1 cells; IA = Inactive at 10e-4 M. It is filed as functional, cell-based.

Assay [4] addresses T2, Peroxisome proliferator-activated receptor gamma (Homo sapiens). Conditions: 10e-4 M.
Description: Compound was tested for its ability to promote differentiation of C3H10T1/2 stem cells to adipocytes using lipogenesis assay mediated through activation of Peroxisome proliferator activated receptor gamma; IA = Inactive at 10e-4 M
The species entered for assay [5] is Mus musculus. In words: Compound was tested for Antihyperlipidemic activity, activity is expressed as percent reduction of NEFAs. It is filed as functional.
The species entered for assay [6] is Mus musculus. In words: Compound was tested for Antihyperlipidemic activity, activity is expressed as percent reduction of Triglycerides. Format: functional.
Assay [7] relates to Mus musculus. In words: Compound was tested in vivo for Antihyperglycemic activity in mice, activity is expressed as percent reduction of plasma glucose. It is filed as functional.
The target of assay [8] is T3, Peroxisome proliferator-activated receptor delta (Mus musculus) (UniProt P35396).
T3 sequence (whole entry): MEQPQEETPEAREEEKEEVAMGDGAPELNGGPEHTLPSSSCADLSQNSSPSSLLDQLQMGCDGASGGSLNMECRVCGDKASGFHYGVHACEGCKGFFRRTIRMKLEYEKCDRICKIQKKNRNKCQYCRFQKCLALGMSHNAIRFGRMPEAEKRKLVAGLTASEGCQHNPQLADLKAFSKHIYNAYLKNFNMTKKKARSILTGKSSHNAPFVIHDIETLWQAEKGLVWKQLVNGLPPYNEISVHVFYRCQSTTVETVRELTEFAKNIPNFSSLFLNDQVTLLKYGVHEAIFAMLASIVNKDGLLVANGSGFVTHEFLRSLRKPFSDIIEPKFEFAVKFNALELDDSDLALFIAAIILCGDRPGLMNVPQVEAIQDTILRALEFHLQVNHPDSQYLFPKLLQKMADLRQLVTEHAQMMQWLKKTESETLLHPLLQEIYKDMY
In words: Compound was tested functionally in vitro for inducing 50% of the maximum alkaline phosphatase activity (Transactivation) against murine Peroxisome proliferator activated receptor delta using transfection assay in CV-1 cells; IA = Inactive at 10e-4 M. Format: functional, cell-based.

Assay [9] concerns the target T4, Peroxisome proliferator-activated receptor alpha (Mus musculus) (UniProt P23204).
T4 sequence (whole entry): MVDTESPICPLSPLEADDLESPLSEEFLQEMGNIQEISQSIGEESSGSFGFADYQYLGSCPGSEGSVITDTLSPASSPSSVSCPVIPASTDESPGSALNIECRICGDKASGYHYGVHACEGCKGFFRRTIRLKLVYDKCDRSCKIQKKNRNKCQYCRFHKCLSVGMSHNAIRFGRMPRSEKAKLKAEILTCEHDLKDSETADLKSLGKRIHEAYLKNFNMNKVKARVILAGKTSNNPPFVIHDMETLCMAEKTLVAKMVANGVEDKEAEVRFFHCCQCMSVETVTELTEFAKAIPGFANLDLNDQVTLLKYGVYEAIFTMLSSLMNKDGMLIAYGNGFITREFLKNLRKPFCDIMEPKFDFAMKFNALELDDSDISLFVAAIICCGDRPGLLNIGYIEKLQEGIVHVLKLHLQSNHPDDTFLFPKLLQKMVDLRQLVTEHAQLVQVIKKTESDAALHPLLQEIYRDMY
In words: Compound was tested functionally in vitro for inducing 50% of the maximum alkaline phosphatase activity (Transactivation) against murine Peroxisome proliferator activated receptor alpha using transfection assay in CV-1 cells; IA = Inactive at 10e-4 M. Format: functional, cell-based.

The test system of assay [10] is Rattus norvegicus. In words: Compound was tested in vivo for Antihyperglycemic activity in Zucker Diabetic fatty rats, activity is expressed as percent reduction of plasma glucose. It is filed as functional.
Assay [11] is filed under the species Rattus norvegicus. In words: Compound was tested for Antihyperlipidemic activity in Zucker Diabetic fatty rats, activity is expressed as percent reduction of NEFAs. It is filed as functional.
The species entered for assay [12] is Rattus norvegicus. In words: Compound was tested for Antihyperlipidemic activity in Zucker Diabetic fatty rats, activity is expressed as percent reduction of Triglycerides. Format: functional.
The subject of assay [13] is Rattus norvegicus. In words: Compound was tested in vivo for Antihyperglycemic activity in Zucker Diabetic fatty rats, activity is expressed as percent reduction of HbA1C. It is filed as functional.
Assay [14] deals with T5, Peroxisome proliferator-activated receptor delta (Homo sapiens) (UniProt Q03181).
T5 sequence (whole entry): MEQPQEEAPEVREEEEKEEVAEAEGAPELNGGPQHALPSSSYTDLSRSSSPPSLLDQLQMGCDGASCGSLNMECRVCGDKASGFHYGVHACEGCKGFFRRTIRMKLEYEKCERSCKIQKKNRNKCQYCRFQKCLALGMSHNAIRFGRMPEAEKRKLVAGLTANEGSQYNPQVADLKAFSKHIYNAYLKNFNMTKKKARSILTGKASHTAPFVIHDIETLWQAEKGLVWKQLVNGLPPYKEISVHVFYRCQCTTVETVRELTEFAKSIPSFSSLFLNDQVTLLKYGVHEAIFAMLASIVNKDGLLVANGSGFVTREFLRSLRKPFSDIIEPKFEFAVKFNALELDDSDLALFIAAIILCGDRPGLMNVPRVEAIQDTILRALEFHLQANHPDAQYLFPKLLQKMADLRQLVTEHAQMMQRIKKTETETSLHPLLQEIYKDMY
Conditions: CV-1; 10e-4 M.
Description: Compound was tested functionally in vitro for inducing 50% of the maximum alkaline phosphatase activity (Transactivation) against human Peroxisome proliferator activated receptor delta using transfection assay in CV-1 cells; IA = Inactive at 10e-4 M

For assay [15], the species on record is Mus musculus. In words: Compound was tested for Antihyperlipidemic activity, activity is expressed as percent increase of body weight.

Calls of active or inactive are those of the source. The calls are words filed in the database; no cut-off is given here.

On to `O=C(c1ccccc1)c1ccccc1N[C@@H](Cc1ccc(OCc2ccccc2)cc1)C(=O)O`, for which a half-maximal response in [1] (EC50) required 16.6 µM. In assay [2], this compound had a Ki of 0.162 µM.

For `CN(CCOc1ccc(CC(Sc2ccccc2C(=O)c2ccccc2)C(=O)O)cc1)c1nc2ccccc2o1` (stereo not given), the EC50 in assay [1] is 1.38 µM. In assay [2], this compound gave a Ki of 0.0331 µM.

For `CN(CCOc1ccc(CC(Oc2ccccc2C(=O)c2ccccc2)C(=O)O)cc1)c1nc2ccccc2o1` (stereo not given), in assay [1], the EC50 is 0.933 µM. This compound gave a Ki in [2] of 0.0324 µM.

Consider `CN(CCOc1ccc(CC(Nc2cccc3c2C(=O)c2ccccc2-3)C(=O)O)cc1)c1nc2ccccc2o1` (stereo not given), for which the EC50 in assay [1] was 0.49 µM. The same compound gave an inhibition constant Ki in assay [2] of 0.0851 µM.

In assay [1], `CN(CCOc1ccc(CC(Nc2ccccc2Oc2ccccc2)C(=O)O)cc1)c1nc2ccccc2o1` (stereo not given) gave an EC50 of 0.107 µM. This compound had a Ki in assay [2] of 0.00372 µM.

`CN(CCOc1ccc(CC(Nc2ccccc2C(O)c2ccccc2)C(=O)O)cc1)c1ccccn1` (stereo not given) had an EC50 in [1] of 0.447 µM. This lies in the sub-micromolar range.

`O=C(c1ccccc1)c1ccc(N[C@@H](Cc2ccc(OCc3ccccc3)cc2)C(=O)O)cc1`: the “Log EC50” value in assay [3] is “inactive”. In assay [2], this compound gave a Ki of 1.26 µM.

As to `COC(=O)[C@H](Cc1ccc(OCc2ccccc2)cc1)Nc1ccccc1C(=O)Nc1ccccc1`, in assay [3], the “Log EC50” value was “inactive”. The compound further registered a Ki in [2] of more than 3.16 µM.

Turning to `CCc1ccc(CCOc2ccc(C[C@H](Nc3ccccc3C(=O)c3ccccc3)C(=O)O)cc2)nc1`, the midpoint of the response in assay [1], the EC50, lay at 0.0501 µM. Further, in assay [2], the Ki was 0.00646 µM.

In turn, `CC(/C=C(\O)c1ccccc1)=N\[C@@H](Cc1ccc(OCc2ccccc2)cc1)C(=O)O` (stereo in doubt; 2) gave a concentration for a half-maximal effect (EC50) in assay [1] of 0.229 µM. The compound also had an inhibition constant Ki in assay [2] of 0.0117 µM.

As for `CN(CCOc1ccc(CC(Nc2ccccc2/C(=N/N)c2ccccc2)C(=O)O)cc1)c1ccccn1` (stereo not given), the EC50 in assay [1] was 0.851 µM. In addition, the Ki in [2] is 0.162 µM.

`Cc1oc(-c2ccccc2)nc1CCOc1ccc(CC2SC(=O)NC2=O)cc1` (stereo not given): the midpoint of the response in [1], the EC50, lay at 0.00316 µM. In addition, the Ki in assay [2] is 0.00427 µM.

`O=C(c1ccccc1)c1cccc(N[C@@H](Cc2ccc(OCc3ccccc3)cc2)C(=O)O)c1`: the “Log EC50” value in assay [3] was “inactive”. In addition, the inhibition constant (Ki) in assay [2] was more than 3.16 µM.

`CN(CCOc1ccc(CC(Nc2ccccc2C(=O)Cc2ccccc2)C(=O)O)cc1)c1nc2ccccc2o1` (stereo not given) gave an EC50 in assay [1] of 0.0288 µM. This compound also had a Ki in assay [2] of 0.00331 µM.

In the case of `CC(/C=C(\O)c1ccccc1)=N\[C@@H](Cc1ccc(OCc2ccccc2)cc1)C(N)=O`, the 50% effective concentration (EC50) in [1] was 0.49 µM. Besides, the Ki in assay [2] was 1.32 µM.

Regarding `N[C@@H](Cc1ccc(OCc2ccccc2)cc1)C(=O)O`, in assay [1], the concentration for a half-maximal effect (EC50) was 2.51 µM. This compound gave a Ki in assay [2] of more than 3.16 µM.

Consider `COC(=O)[C@H](Cc1ccc(OCc2ccccc2)cc1)/N=C(\C)C1=C(O)c2ccccc2CC1`, for which the “Log EC50” value in assay [3] was “inactive”. Moreover, in assay [2], the Ki was more than 3.16 µM.

In turn, `CC1(COc2ccc(C[C@H](Nc3ccccc3C(=O)c3ccccc3)C(=O)O)cc2)CCCCC1` gave a concentration giving a half-maximal response (EC50) in assay [1] of 0.617 µM. Also, in assay [2], the Ki was 0.0513 µM.

In the case of `COC(=O)[C@H](Cc1ccc(OCc2ccccc2)cc1)Nc1ccccc1C(=O)OCc1ccccc1`, the “Log EC50” value in assay [3] is “inactive”. Also, the Ki in [2] was more than 3.16 µM.

`CN(CCOc1ccc(CC(Nc2cccc3c2C(=O)c2ccccc2C3=O)C(=O)O)cc1)c1nc2ccccc2o1` (stereo not given) gave a concentration for a half-maximal effect (EC50) in assay [1] of 0.00501 µM. The compound also gave a Ki in [2] of 0.00513 µM. Also, the “Log EC50” value in [4] was “inactive”.

On to `O=C(O)[C@H](Cc1ccc(OCc2ccccc2)cc1)/N=C1\CCCC\C1=C(\O)c1ccccc1`, for which, in [1], it took 10.2 µM to reach a half-maximal effect (EC50). The compound further showed a Ki in [2] of 0.794 µM.

On to `Cc1oc(-c2ccccc2)nc1CCOc1ccc(C[C@H](Nc2ccccc2C(=O)c2ccccc2)C(=O)O)cc1` [FARGLITAZAR], for which the Reduction turned out to be 56% in the assay listed under Mus musculus [5]; 54% in the assay filed under Mus musculus [6]; 65% with Mus musculus [7]; 65% in the assay on Rattus norvegicus [10]; 75% in the assay filed under Rattus norvegicus [11]; 77% in the assay listed under Rattus norvegicus [12]. In the assay on Rattus norvegicus [13], this compound had a Reduction of 33%. For the same compound, the “Log EC50” value in assay [8], in assay [9] and in assay [14] was “inactive” in each case. The “body weight increase %” value in the assay filed under Mus musculus [15] is recorded as 17%.

`O=C(O)[C@H](Cc1ccc(OCc2ccccc2)cc1)Nc1ccccc1Cc1ccccc1`: the “Log EC50” value in [3] was “inactive”. For the same compound, the Ki in assay [2] is more than 3.16 µM.

Consider `C/C(O)=C/C(C)=N/[C@@H](Cc1ccc(OCc2ccccc2)cc1)C(=O)O`, for which, in [3], the “Log EC50” value is “inactive”. Besides, the Ki in [2] was 1.95 µM.

In the case of `CN(CCOc1ccc(CC(Nc2ccccc2S(=O)(=O)c2ccccc2)C(=O)O)cc1)c1nc2ccccc2o1` (stereo not given), the EC50 in assay [1] was 1.82 µM. This compound had a Ki in assay [2] of 0.123 µM.

The compound `Cc1c(C)c2c(c(C)c1O)CCC(C)(COc1ccc(C[C@H](Nc3ccccc3C(=O)c3ccccc3)C(=O)O)cc1)O2` (stereo not given in full) showed a 50% effective concentration (EC50) in [1] of 0.00912 µM. This compound also showed an inhibition constant Ki in [2] of 0.00525 µM.

Regarding `COC(=O)[C@H](Cc1ccc(OCc2ccccc2)cc1)/N=C(C)/C=C(\O)c1ccccc1`, in assay [1], the EC50 was 0.692 µM. This compound gave an inhibition constant (Ki) in [2] of 0.759 µM.

`CC(/C=C(\O)c1ccccc1)=N\[C@@H](Cc1ccc(OCc2ccccc2)cc1)C(=O)O` (stereo in doubt) gave an EC50 in assay [1] of 21.9 µM. Further, the Ki in assay [2] is more than 3.16 µM.
